From patent publication US20050148042A1, “Hybrid phosphoinositide phospholipids: compositions and uses” (priority 2002, published 2005)

What was measured:
GST-PLC δ1-PH = biological target: T1, GST-PLC δ1-PH (Homo sapiens, UniProt P51178); test: Protein-overlay binding to lipids spotted onto nitrocellulose; details: 200 pmol to 6 pmol spotted onto nitrocellulose
T1 construct: made in house; host or cells: E. coli
T1 sequence (P51178 21-130 limits assumed): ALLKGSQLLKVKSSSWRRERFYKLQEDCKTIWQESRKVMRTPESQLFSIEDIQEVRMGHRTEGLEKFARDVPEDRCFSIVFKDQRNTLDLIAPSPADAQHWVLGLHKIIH
Excerpt: In this Example, immobilized Pea-PIPns are readily and specifically recognized by lipid recognition proteins. According to this Example, six different quantities (from 200 pmol to 6 pmol) of Ptdlns(3,4)P2, Ptdlns(3,5)P2, Ptdlns(4,5)P2, Pea-PI(4,5)P2,Ptdlns(3,4,5)P3; Pea-PI(3,4,5P)3 PI and PE were spotted onto nitrocellulose, and binding of Glutathione S-Transferase (GST)-PLC δ1-PH and GST-General Receptor for Phosphoinositides (Grp1)-PH constructs was examined by a protein-overlay technique (described in Dowler, S., Kular, G., and Alessi, D. R. (2002) Sci STKE 2002, PL6) (recombinant GST tagged PLC δ1-PH and Grp1-PH domain proteins used in this Example were expressed in E. coli then purified using glutathione affinity resin (Amersham Biosciences, Piscataway, N.J.).

GST-PLC δ1-PH domain = biological target: T2, GST-PLC δ1-PH domain (Homo sapiens, UniProt P51178); test: AlphaScreen competitive binding, biotinylated Pea-PI(4,5)P2 as probe lipid
T2 construct: made in house; host or cells: E. coli
T2 sequence (P51178 21-130 limits assumed): T1 sequence (P51178 21-130 limits assumed)
Method: In addition, competitive binding assays were conducted in which the GST-PLC δ1-PH protein was pre-incubated for 30 min with 10 nM to 10 fM of unlabeled diC4 Ptdlns(4,5)P2, Ptdlns(3,4,5)P3, or Pea-PI(4,5)P2 prior to addition of the other reagents, using biotinylated Pea-PI(4,5)P2 as the probe lipid.
These competitive binding experiments were similar to the binding experiment described above except that non biotinylated lipids are added to each reaction to compete with biotinylated Pea-PI(4,5)P2 for binding to PLC-δ 1-PH domain. For example, eight concentrations of PI(3,4,5)P3 diC4, PI(4,5)P2 diC4, and Pea-PI(4,5)P2 were added as competitors to separate wells in addition to 0.2 pmol/well PLC-δ-1-PH domain, 0.4 pmol/well of Pea-PI(4,5)P2, streptavidin donor, and anti-GST acceptor beads; and incubated as previously described. […] This 500 times better affinity of Pea-PI(4,5)P2 for PLC d1-PH domain compared to PI(3,4,5)P3 is fundamental to the development of a robust assay where one detects the specific PIPn product of a kinase or phosphatase in the presence of excess PIPn substrate.

anti-PIP3 antibody = test: Antibody binding to lipids covalently coupled to Maleic-Anhydride activated 96-well plate; details: 50 pmol per well, absorbance at 450 nm
Method: The ability of lipid recognition proteins to specifically recognize and bind to Pea-PIPns was tested by coupling Pea-PIPns (as well as amino PIPs with the same headgroups as controls) to polystyrene microtiter plates. Briefly, 50 pmol per well of amino PI(4,5)P2 (PIP2), amino PI(3,4,5)P3 (PIP3), Pea-PI(4,5)P2 (Pea-PIP2), and Pea-PI(3,4,5)P3 (Pea-PIP3) lipids in 100 μL PBS were coupled via their primary amine functional groups to triplicate wells of a Maleic-Anhydride activated 96-well plate (Pierce, Rockford, Ill.). Underivatized groups were reacted with 200 μL Tris-Glycine-SDS overnight before blocking with 200 μL 0.02% Ovalbumin in TBS. […] Specific binding was subsequently visualized by incubating with anti-mouse-HRP (horseradish peroxidase) secondary antibody (Sigma, St Louis, Mo.), washing as before, then adding tetramethylbenzadine (TMB) developing reagent (Sigma) and reading the absorbance at 450 nm in a plate reader.
Binding specificity of Pea-PIPs was further tested by coupling Pea-PIP2 and Pea-PIP3 (as well as amino PIPs with the same headgroups as controls) to polystyrene microtiter plates. […] Specific binding was subsequently visualized by incubating with anti-mouse-HRP secondary antibody (Sigma, St Louis, Mo.), washing as before, then adding Tetramethylbenzadine (TMB) developing reagent (Sigma) and reading the absorbance at 450 nm in a plate reader.

[1] = protein pre-incubated 30 min with 10 nM to 10 fM competitor

selectivity for displacement of GST-PLC δ1-PH, relative to di-C4 Ptdlns(3,4,5)P3 (GST-PLC δ1-PH domain; [1]) | SMILES | recognition by GST-PLC δ1-PH (GST-PLC δ1-PH) | IC50 (GST-PLC δ1-PH domain; 0.2 pmol/well PLC-δ-1-PH domain, 0.4 pmol/well probe lipid, read-out: IC50 value as competitor) [nM] | binding to the PH domain as unlabeled competitor (GST-PLC δ1-PH domain; [1]) | better affinity for PLC d1-PH domain compared to PI(3,4,5)P3 (GST-PLC δ1-PH domain; ratio of IC50 values) [times] | recognition by anti-PIP3 antibody (anti-PIP3 antibody)
– | CCCCCCCCCCCCCCCC(=O)O[C@H](COP(=O)(O)OCCN)[C@@H](COP(=O)(O)O[C@@H]1[C@H](O)[C@H](O)[C@@H](OP(=O)(O)O)[C@H](OP(=O)(O)O)[C@H]1O)OC(=O)CCCCCCCCCCCCCCC [Pea-PI(4,5)P2, 1-[(2R,3R)-4-(2-Aminoethoxyphosphoryloxy)-2,3-di-O-palmitoylbutoxyphosphoryloxy]-4,5-myo-bisphosphate] | able to bind the correct protein at lower concentrations than the corresponding diC16 phosphoinositides | 140 | further increase in binding | 500 | (but not Pea-PIP2) was recognized by the specific antibody
Over 100 fold | CCCC(=O)OCC(COP(=O)(O)OC1C(O)C(O)C(OP(=O)(O)O)C(OP(=O)(O)O)C1O)OC(=O)CCC (stereo not drawn) [di-C4 Ptdlns(4,5)P2, reference compound] | – | – | – | – | –
